Measured values from patent publication US11124510B2, “Alkyl chain modified imidazoquinoline TLR7/8 agonist compounds and uses thereof” (Dynavax Technologies Corporation, priority 2017, dated 2021).

Key:
TLR7 = TLR7 (Homo sapiens (Human), UniProt Q9NYK1); assay: TLR7 agonist bioactivity: induction of IFNα protein in pDC-enriched PBMC cultures (ELISA, 24 h); format: cell-based; conditions: for TLR7 (% of Compound No. 63-00 EC50 Value): EC50 expressed as percentage of EC50 of Compound No. 63-00; for EC50: IFNα induction, pDC-enriched human PBMC, 24 hours; for fold loss of TLR7 agonist potency compared to Compound No. 63-00 (IMDQ): less potent than IMDQ
TLR7, sequence (Q9NYK1 27-1049): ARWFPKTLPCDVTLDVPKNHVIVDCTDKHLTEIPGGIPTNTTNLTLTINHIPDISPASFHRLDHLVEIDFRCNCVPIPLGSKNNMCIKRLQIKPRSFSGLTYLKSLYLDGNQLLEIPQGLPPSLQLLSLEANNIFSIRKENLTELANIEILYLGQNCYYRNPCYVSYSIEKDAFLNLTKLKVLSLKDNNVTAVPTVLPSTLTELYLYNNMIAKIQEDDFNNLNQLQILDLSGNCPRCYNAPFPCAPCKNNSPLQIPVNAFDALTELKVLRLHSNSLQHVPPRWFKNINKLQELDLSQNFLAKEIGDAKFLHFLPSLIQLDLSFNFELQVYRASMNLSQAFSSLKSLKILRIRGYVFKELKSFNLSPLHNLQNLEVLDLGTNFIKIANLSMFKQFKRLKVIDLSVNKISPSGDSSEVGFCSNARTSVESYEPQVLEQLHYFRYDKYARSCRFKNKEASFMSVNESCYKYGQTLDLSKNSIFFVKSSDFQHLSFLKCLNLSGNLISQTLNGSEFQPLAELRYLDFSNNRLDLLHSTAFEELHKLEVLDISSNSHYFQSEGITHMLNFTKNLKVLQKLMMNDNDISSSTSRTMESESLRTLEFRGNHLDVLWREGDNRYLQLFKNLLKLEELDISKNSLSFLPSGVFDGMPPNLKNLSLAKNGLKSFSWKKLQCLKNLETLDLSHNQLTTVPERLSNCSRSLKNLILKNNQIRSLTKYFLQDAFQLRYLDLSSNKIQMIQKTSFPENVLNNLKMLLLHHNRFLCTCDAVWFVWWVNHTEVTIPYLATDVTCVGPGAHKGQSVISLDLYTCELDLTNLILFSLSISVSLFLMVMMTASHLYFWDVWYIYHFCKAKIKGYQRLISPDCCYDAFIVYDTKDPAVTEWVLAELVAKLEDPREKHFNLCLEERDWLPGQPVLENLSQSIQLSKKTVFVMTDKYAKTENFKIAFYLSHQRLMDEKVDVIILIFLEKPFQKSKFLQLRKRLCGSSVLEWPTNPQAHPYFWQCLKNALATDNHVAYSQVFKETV
Procedure: Plasmacytoid dendritic cell (pDC)—enriched peripheral blood mononuclear cells (PBMCs) were prepared from the blood of a series of human donors (3-5 donors/experiment). PBMCs were isolated using Ficoll-Paque Premium® (GE Healthcare, Chicago Ill.) using methods well known to those in the art. pDCs were magnetically isolated from the total recovered PBMC population using CD304 (BDCA-4/Neuropilin-1) microbeads (Miltenyi Biotec, San Diego Calif.), according to the manufacturer's instructions. Isolated pDCs were then added back to between 1 and 2×10^8 of the corresponding donor's PBMCs for relative enrichment of this cell type. […] Culture supernatants were collected and interferon-alpha (IFNα) protein levels were measured by ELISA (MabTech, Cincinnati Ohio), according to the manufacturer's instructions.

serum IL-6 and IL-12p40 = assay: In vivo systemic immune activation assay: serum IL-6 and IL-12p40 by ELISA after single subcutaneous injection; set-up: species or system mice; conditions: 5 μg subcutaneously in footpad, 95% sesame oil/5% ethanol, ± SEM
Procedure: Small molecule TLR7 and TLR7/8 agonists derived from the 1H-imidazo[4,5-c]quinoline privileged template (see e.g., Imiquimod, Resiquimod) are known to rapidly distribute to the systemic compartment following intratumoral, subcutaneous, or intramuscular injection. Broad systemic distribution of these agonist compounds in wild-type mice induces TLR7-dependent cytokine responses, primarily in spleen and liver cells, which can subsequently be detected in the serum within 3-6 hours. The rapid increase in serum cytokine biomarkers (e.g., IL-6 and IL-12p40) can be used to assess the kinetics of systemic distribution of a locally administered TLR agonist.
The kinetics of distribution of pharmaceutical compositions comprised of Compound Nos. 63-00, 63-17, or 63-10 formulated in 95% sesame oil/5% ethanol (v/v) were assessed following a single subcutaneous injection in wild-type mice. All in vivo procedures were conducted in accordance with approved Institutional Animal Care and Use Committee (IACUC) protocols. The animals were housed in a facility that is accredited by the Association for Accreditation and Laboratory Animal Care (AALAC, Frederick Md.). Wild-type female BALB/c mice (15-20 gm) were obtained from Envigo (Hayward, Calif.) and acclimated for 2-3 days prior to use.
The pharmaceutical compositions were made with the three compounds, at a final concentration of 200 μg/mL, in a manner similar to that described in Example B2-1. At T=0, groups of 3 mice were anesthetized with 1% isoflurane and injected subcutaneously in the right footpad with 5 μg of each of the three compounds, or a vehicle control, in 25 uL of 95% sesame oil/5% ethanol (v/v). Then, at T=3, 6, and 24 hours, three animals from each group were anesthetized with 1% isoflurane to facilitate blood collection by cardiac puncture. Samples were processed to serum, and stored at −20° C. for further analysis.

CT26 colon carcinoma [1] = assay: Anti-tumor efficacy in combination with anti-PD-1 antibody in dual flank CT26 colon carcinoma-bearing mice; format: in vivo; conditions: for tumor growth inhibition in the injected tumor (right flank) compared to the anti-PD-1 treatment alone / tumor growth inhibition in the distal tumor (left flank) compared to the anti-PD-1 treatment alone: 5,000 ng single intratumoral dose day 14, in combination with anti-PD-1; for tumor growth inhibition in the distal tumor (left flank) compared to the anti-PD-1 treatment alone: day 29; for injected tumor growth inhibition, difference from the anti-PD-1 treatment control at day 29: 5,000 ng single intratumoral dose, in combination with anti-PD-1, Kruskall-Wallis/Dunn
Procedure: All in vivo procedures were conducted in accordance with approved IACUC protocols. The animals were housed in a facility that is accredited by the AALAC. Wild-type female Balb/c mice (15-20 g) were obtained from Envigo (Hayward, Calif.) and acclimated for 2-3 days prior to use.
The pharmaceutical compositions were made using Compound No. 63-10 or 63-33 at final concentrations of 50,000 ng/mL in a manner similar to that described for Example B2-1. […] On day 0, mice were anesthetized with 1% isoflurane, and 80,000 CT26 tumor cells in 200 uL of RMPI-1640 culture media plus 2.5% fetal bovine serum were injected subcutaneously in both the right and left flanks. Tumors (left and right) were allowed to grow until day 8, when the right and left flank tumor sizes had reached approximately 35 mm^3, at which point mice were injected intraperitoneally with 250 μg of anti-PD-1 antibody formulated in phosphate buffered saline or a phosphate buffered saline vehicle control. The anti-PD-1 treatments were repeated on experimental days 12, 15, 19, 22, and 26. On experimental day 14, when the right (injected) and left (distal) flank tumors had reached approximately 100 mm^3, mice were randomized into treatment groups. […] Tumor sizes were measured twice weekly from days 14 through day 29 with calipers, with tumor volumes calculated using the formula: length, multiplied by width, multiplied by width, divided by 2.

TLR8 = TLR8 (Homo sapiens (Human), UniProt Q9NR97); assay: TLR8 agonist bioactivity: induction of TNFα protein in monocyte cultures (ELISA, 24 h); format: cell-based; conditions: for EC50: TNFα induction, human monocytes, 24 hours; for fold increase of TLR8 agonist potency compared to Compound No. 63-00 (IMDQ): more potent than IMDQ
TLR8, sequence (Q9NR97 27-1041): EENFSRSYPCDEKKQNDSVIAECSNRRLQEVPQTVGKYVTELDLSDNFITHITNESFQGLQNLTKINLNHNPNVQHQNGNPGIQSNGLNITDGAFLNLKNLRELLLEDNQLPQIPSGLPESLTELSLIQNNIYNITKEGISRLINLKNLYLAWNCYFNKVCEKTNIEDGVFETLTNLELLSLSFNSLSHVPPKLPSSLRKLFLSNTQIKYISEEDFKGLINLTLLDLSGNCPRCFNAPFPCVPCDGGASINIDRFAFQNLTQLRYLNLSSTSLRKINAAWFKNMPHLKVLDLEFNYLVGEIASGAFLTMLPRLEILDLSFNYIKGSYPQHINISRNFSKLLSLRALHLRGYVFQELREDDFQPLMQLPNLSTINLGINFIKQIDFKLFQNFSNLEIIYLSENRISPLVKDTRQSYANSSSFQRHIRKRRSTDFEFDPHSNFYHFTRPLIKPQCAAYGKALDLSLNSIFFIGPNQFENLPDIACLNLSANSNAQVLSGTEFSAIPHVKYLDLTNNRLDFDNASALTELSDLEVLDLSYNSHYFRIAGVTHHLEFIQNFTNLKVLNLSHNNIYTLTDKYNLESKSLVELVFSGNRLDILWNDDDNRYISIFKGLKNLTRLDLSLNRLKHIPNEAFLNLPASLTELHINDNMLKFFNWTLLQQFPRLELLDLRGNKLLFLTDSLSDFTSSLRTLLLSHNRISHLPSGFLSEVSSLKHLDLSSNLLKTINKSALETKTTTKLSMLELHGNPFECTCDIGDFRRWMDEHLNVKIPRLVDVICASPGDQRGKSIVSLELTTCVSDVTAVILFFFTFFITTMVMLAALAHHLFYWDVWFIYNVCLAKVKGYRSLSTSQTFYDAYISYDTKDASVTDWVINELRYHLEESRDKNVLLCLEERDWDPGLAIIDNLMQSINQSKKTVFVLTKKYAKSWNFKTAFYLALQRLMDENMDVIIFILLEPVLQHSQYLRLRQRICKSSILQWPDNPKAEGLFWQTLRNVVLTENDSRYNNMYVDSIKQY
Procedure: Monocytes were magnetically isolated from PBMCs, prepared as described above, following labeling with CD14 microbeads (Miltenyi Biotec, San Diego Calif.), according to the manufacturer's instructions. […] Culture supernatants were collected and tumor necrosis factor alpha (TNFα) protein levels were measured by ELISA (MabTech, Cincinnati Ohio), according to the manufacturer's instructions.

CT26 colon carcinoma [2] = assay: Anti-tumor efficacy, repeated intratumoral dosing in CT26 colon carcinoma-bearing wild-type mice; format: in vivo; conditions: 0.5-20 μg in 95% sesame oil/5% ethanol
Procedure: The effect of repeated weekly doses of intratumorally delivered pharmaceutical compositions comprised of Compound No. 63-10, 63-18, or 63-33 formulated in 95% sesame oil/5% ethanol (v/v) on tumor growth inhibition was assessed in syngeneic CT26 colon carcinoma-bearing Balb/c mice. All in vivo procedures were conducted in accordance with approved Institutional Animal Care and Use Committee (IACUC) protocols. The animals were housed in a facility that is accredited by the Association for Accreditation and Laboratory Animal Care (AALAC, Frederick, Md.). Wild-type female Balb/c mice (15-20 gm) were obtained from Envigo (Hayward, Calif.) and acclimated for 2-3 days prior to use.
The pharmaceutical compositions were made with the three compounds at final concentrations of 5, 50, and 200 μg/mL in a manner similar to that described in Example B2-1. […] On day 0, mice were anesthetized with 1% isoflurane and 80,000 CT26 tumor cells in 200 uL of RMPI-1640 culture media plus 2.5% fetal bovine serum were injected subcutaneously in the right flank. Tumors were allowed to grow until they were ˜35 mm^3, at which point animals were assigned to groups to begin treatment. Mice were injected weekly for 4 weeks intratumorally with 100 uL of a pharmaceutical composition comprising 20, 5, or 0.5 μgs of Compound No. 63-10, or 20 or 5 μgs of Compound Nos. 63-18, or 63-33 formulated in 95% sesame oil/5% ethanol (v/v), or a vehicle control, twice weekly for 3 weeks (experimental days 9, 12, 16, 19, 23, and 26). The TLR9 CpG agonist was injected intratumorally with 100 μL of a pharmaceutical composition comprised of 50 μgs of compound formulated in phosphate buffered saline on the same dosing schedule. Tumor sizes were measured twice weekly from days 8 through day 30 with calipers, with tumor volumes calculated using the formula: length, multiplied by width, multiplied by width, divided by 2.

| SMILES | TLR7 (% of Compound No. 63-00 EC50 Value) (TLR7) | serum IL-6 (serum IL-6 and IL-12p40; 3 hours) | serum IL-12p40 (serum IL-6 and IL-12p40; 3 hours) | serum IL-6 (serum IL-6 and IL-12p40; 6 hours) | serum IL-12p40 (serum IL-6 and IL-12p40; 6 hours) | serum IL-6 (serum IL-6 and IL-12p40; 24 hours) | serum IL-12p40 (serum IL-6 and IL-12p40; 24 hours) | tumor growth inhibition in the injected tumor (right flank) compared to the anti-PD-1 treatment alone (CT26 colon carcinoma [1]) | tumor growth inhibition in the distal tumor (left flank) compared to the anti-PD-1 treatment alone (CT26 colon carcinoma [1]) | injected tumor growth inhibition, difference from the anti-PD-1 treatment control at day 29 (CT26 colon carcinoma [1]) | EC50 (TLR7) | fold loss of TLR7 agonist potency compared to Compound No. 63-00 (IMDQ) (TLR7) | EC50 (TLR8) | fold increase of TLR8 agonist potency compared to Compound No. 63-00 (IMDQ) (TLR8) | CT26 tumor growth control compared to the vehicle control (CT26 colon carcinoma [2]) | TLR8 (% of Compound No. 63-00 EC50 Value) (TLR8; EC50 expressed as percentage of EC50 of Compound No. 63-00) |
| --- | --- | --- | --- | --- | --- | --- | --- | --- | --- | --- | --- | --- | --- | --- | --- | --- |
| CCCCc1nc2c(N)nc3ccccc3c2n1Cc1ccc(CN)cc1 [Compound No. 63-00, 1-(4-(aminomethyl)benzyl)-2-butyl-1H-imidazo[4,5-c]quinolin-4-amine, reference compound] | 100% | 772 ± 141 pg/mL | 139,767±31,024 pg/mL | 160 ± 19 pg/mL | 142,359±22,350 pg/mL | 32 ± 2 pg/mL | 7,796±1,545 pg/mL | greater tumor growth inhibition | trend towards greater tumor growth inhibition | significantly different |  |  |  |  |  |  |
| CCCCCNCc1ccc(Cn2c(CCCC)nc3c(N)nc4ccccc4c32)cc1 [Compound No. 63-17, 2-butyl-1-(4-((pentylamino)methyl)benzyl)-1H-imidazo[4,5-c]quinolin-4-amine] |  | 853 ± 539 pg/mL | 84,731±32,530 pg/mL | 414 ± 105 pg/mL | 258,645±19,982 pg/mL | 33 ± 4 pg/mL | 19,546±2,116 pg/mL |  |  |  | 2 nM | 2 fold | 104 nM |  |  |  |
| CCCCCCNCc1ccc(Cn2c(CCCC)nc3c(N)nc4ccccc4c32)cc1 [Compound No. 63-18, 2-butyl-1-(4-((hexylamino)methyl)benzyl)-1H-imidazo[4,5-c]quinolin-4-amine] |  |  |  |  |  |  |  |  |  |  | 15 nM |  | 213 nM | slightly improved | robust CT26 tumor growth control |  |
| CCCCc1nc2c(N)nc3ccccc3c2n1Cc1ccc(CNCCC2CC2)cc1 [Compound No. 63-33, 2-butyl-1-(4-(((2-cyclopropylethyl)amino)methyl)benzyl)-1H-imidazo[4,5-c]quinolin-4-amine] | 290% |  |  |  |  |  |  | greater tumor growth inhibition | trend towards greater tumor growth inhibition | significantly different | 4 nM | 4 fold | 75 nM | 2.9 fold | robust CT26 tumor growth control | 41% |
